Laboratory results: patent US20110142889A1, “COMPOSITIONS AND METHODS FOR ORAL DRUG DELIVERY” (NOD Pharmaceuticals, Inc., priority 2009, published 2011)

Tests used:
[1] = colon suppository containing 25 mg sodium caprate; cited from earlier work
[2] = estimated; cited from earlier work
blood glucose = assay: effect of oral insulin on blood glucose in somatostatin infused dogs (Example 9); assay type: in vivo, beagle dogs; settings: somatostatin infusion 1 μg/kg/min; FIG. 8B
Excerpt: Water was supplied ad libitum.

[3] = dog, in vivo
Protocol: The absorption of oral insulin was evaluated in beagles under somatostatin infusion at 1 μg/kg/min via an indwelling vein catheter.
Twelve beagle dogs with body weights between 8-12 kg were housed in an animal facility. The dogs were randomly divided into three groups and fasted overnight. Water was supplied ad libitum. Somatostatin infusion (1 μg/kg/min) was performed using a balloon infusion pump via an indwelling vein catheter, and tablets were fed with 10 ml water at 4 hr after initiation of somatostatin infusion. Food was restricted during the study, and blood samples were collected at various time points in heparinized tubes.
Blood glucose concentration was measured with a glucometer and matching testing strips (Johnson & Johnson, OneTouch®), and serum samples of 0.5-0.6 ml were recovered after blood samples were collected and centrifuged at 3000 rpm for 10 min. The samples were frozen at −20° C., and insulin concentration was measured by ELISA (Linco).

Compound: CC1(C)S[C@@H]2[C@H](NC(=O)[C@H](N)c3ccccc3)C(=O)N2[C@H]1C(=O)O [ampicillin]
- increase of area under the serum concentration-time curve (AUC) compared to ampicillin alone [1]: 2.3 fold
- increase of maximum serum concentration (Cmax) compared to ampicillin alone [1]: 2.6 fold

Compound: CCCCCCCCCC(=O)[O-].[Na+] [sodium caprate]
- concentration needed to achieve a permeation enhancing effect [2]: 10 to 13 mM

Compound: insulin [Insulin injection]
- effect on blood glucose (blood glucose): rapid and profound reduction of glucose levels
- effect on serum insulin concentration [3]: large increase in insulin concentration
